Measured values reported in US20110245104A1, “Method for screening the sensitizing properties of chemical compounds” (priority 2010, published 2011).

Legend:
keratins = assay: Protein cross-linking by bidentate haptens (SDS gels of blebs); format: cell-based, human; conditions: bidentate hapten
Excerpt: In SDS-PAGE experiments it was shown that thiol-, amine-, and arginine-reactive sensitizers give rise to blebs that contain the same proteins. […] It was also shown that the sensitizing compounds also modify other proteins and that these proteins are released in blebs, as visualized by fluorescent bands on SDS-gels.

[1] = tested on: serum amyloid P component (SAP); assay: Serum amyloid P component (SAP) in sera of mice exposed to sensitizers; format: in vivo; conditions: sera of mice exposed to sensitizer
[2] = tested on: anti-nuclear antibodies (ANA); assay: Anti-nuclear antibodies (ANA) in sera of mice topically exposed to haptens; format: in vivo; conditions: topical exposure
human skin excerpts = assay: Labeling of human skin excerpts by caged haptens
Excerpt: The first step is that the molecules come into contact with the skin (the stratum corneum). Many of the reactive molecules react in the stratum corneum, something that can be seen in experiments with human skin excerpts and the caged (mBBr and dBBr) haptens. However, a significant proportion of the molecules penetrate further down to the suprabasal layers of the epidermis but also the follicular pathway is of importance for bringing xenobiotics into the skin. It is likely that the penetration is due both to the acidic pH of the stratum corneum (the molecules react more slowly when the pH is low), but also because many of the available groups have reacted. In the suprabasal layers, the haptens have a hard time penetrating the cells, as the cornification of the cells creates a thick, relatively impermeable envelope around the suprabasal cells. Consequently, the haptens penetrate down to the basal layer. Here, the cell membrane is much thinner and more fluidic and the molecules can thus enter the basal cells.

SMILES: Cc1c(CBr)n2c(CBr)c(C)c(=O)n2c1=O [dBBr, dibromobimane]
- Cross-links between keratins (keratins): cause cross-links
- Level of serum amyloid P component (SAP) [1]: increased levels
- Level of anti-nuclear antibodies (ANA) in sera [2]: increased levels
- Labeling of cells in the basal layer (human skin excerpts): cells in the basal layer are labeled
